Experimental findings from ChEMBL document CHEMBL4340508, “Synthesis and evaluation of tetrahydroisoquinoline-benzimidazole hybrids as multifunctional agents for the treatment of Alzheimer's disease” (Eur J Med Chem, 2019) are described below.

For data set [1], the target named is Cholinesterase (Homo sapiens) (UniProt P06276). Kind of data set: Inhibition of human serum BuChE at 10 uM using butyrylthiocholine chloride as substrate preincubated for 15 mins followed by substrate addition and measured at 1 min time interval by Ellman's method relative to control. Background: Ellman's reagent forms a yellow product with free thiols.
Cholinesterase (Homo sapiens), sequence (P06276 whole entry): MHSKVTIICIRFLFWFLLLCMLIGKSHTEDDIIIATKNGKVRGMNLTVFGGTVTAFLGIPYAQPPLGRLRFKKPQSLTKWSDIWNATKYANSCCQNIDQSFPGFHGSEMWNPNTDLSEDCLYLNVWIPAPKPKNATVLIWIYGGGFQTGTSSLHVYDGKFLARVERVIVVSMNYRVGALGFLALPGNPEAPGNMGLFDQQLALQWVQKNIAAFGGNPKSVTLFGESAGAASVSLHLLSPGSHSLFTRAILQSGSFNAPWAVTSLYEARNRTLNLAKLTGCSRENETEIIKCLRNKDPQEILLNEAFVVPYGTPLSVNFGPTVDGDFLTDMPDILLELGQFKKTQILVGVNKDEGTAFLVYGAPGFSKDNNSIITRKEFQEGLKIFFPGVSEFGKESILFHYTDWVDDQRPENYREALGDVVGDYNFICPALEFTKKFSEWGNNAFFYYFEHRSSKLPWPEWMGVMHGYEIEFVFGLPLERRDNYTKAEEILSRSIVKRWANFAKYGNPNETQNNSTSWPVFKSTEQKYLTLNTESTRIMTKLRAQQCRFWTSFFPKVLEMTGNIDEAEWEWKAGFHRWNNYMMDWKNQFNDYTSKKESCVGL
Data set [2] relates to BV-2. Kind of data set: Antineuroinflammatory activity in mouse BV2 cells assessed as inhibition of LPS-induced nitric oxide production pretreated for 30 mins followed by LPS-stimulation for 24 hrs by Griess assay. Type of data set: functional, cell-based. (Griess reagent forms a coloured azo dye with nitrite.)
Data set [3] can be described thus: Permeability of the compound in PBS/EtOH at 100 ug/ml after 10 hrs by PAMPA-BBB assay. Type of data set: ADME. The settings on record: read-out: permeability. Background: In PAMPA a lipid-coated filter parts donor from acceptor wells.
Data set [4] deals with Acetylcholinesterase (Homo sapiens) (UniProt P22303). The data set can be described thus: Inhibition of human erythrocyte AChE at 10 uM using acetylthiocholine chloride as substrate preincubated for 15 mins followed by substrate addition and measured at 1 min time interval by Ellman's method relative to control.
Acetylcholinesterase (Homo sapiens), sequence (P22303 whole entry): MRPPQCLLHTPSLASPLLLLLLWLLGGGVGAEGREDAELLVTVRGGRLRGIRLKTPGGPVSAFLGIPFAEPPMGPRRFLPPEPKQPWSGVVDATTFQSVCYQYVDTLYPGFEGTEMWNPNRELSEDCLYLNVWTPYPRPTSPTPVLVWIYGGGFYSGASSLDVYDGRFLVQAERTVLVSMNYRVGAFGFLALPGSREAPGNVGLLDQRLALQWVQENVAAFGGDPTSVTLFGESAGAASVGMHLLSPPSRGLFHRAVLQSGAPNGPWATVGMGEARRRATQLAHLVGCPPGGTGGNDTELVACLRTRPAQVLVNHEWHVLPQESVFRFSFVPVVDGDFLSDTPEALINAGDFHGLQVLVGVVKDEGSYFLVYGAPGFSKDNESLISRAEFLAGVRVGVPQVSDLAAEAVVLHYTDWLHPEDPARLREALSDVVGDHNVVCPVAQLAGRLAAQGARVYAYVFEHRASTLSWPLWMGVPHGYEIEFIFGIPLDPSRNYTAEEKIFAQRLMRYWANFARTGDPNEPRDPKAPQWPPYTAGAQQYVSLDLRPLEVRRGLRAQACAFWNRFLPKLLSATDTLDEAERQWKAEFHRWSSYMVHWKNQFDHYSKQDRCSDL
The target in data set [5] is Beta-secretase 1 (Homo sapiens, UniProt P56817). Kind of data set: Inhibition of recombinant human BACE1 preincubated with enzyme for 20 mins followed by addition of Rh-EVNLDAEFK-Quencher as substrate measured after 60 mins by FRET assay.
Beta-secretase 1, sequence (P56817 whole entry): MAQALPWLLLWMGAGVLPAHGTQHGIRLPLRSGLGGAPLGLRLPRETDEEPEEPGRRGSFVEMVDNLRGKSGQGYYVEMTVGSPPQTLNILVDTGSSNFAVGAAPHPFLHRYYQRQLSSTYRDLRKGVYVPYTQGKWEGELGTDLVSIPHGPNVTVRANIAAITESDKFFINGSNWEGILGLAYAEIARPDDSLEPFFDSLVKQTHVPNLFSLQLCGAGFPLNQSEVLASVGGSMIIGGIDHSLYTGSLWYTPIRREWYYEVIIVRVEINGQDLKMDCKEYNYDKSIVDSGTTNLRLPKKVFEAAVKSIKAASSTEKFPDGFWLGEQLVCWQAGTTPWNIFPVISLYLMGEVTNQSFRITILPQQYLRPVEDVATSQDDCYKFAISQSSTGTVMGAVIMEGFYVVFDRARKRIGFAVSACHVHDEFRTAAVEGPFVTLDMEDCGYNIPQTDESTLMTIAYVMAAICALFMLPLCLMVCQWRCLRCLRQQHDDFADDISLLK
The subject of data set [6] is HT-22. The data set can be described thus: Neuroprotective activity against glutamate-induced cytotoxicity in mouse HT22 cells assessed as cell viability at 5 uM measured after 24 hrs by MTT assay (reference value: 30%). It is filed as functional. The following applies: HT-22, 24 h, read-out: Activity.
In data set [7] the test system is HT-22. Kind of data set: Neuroprotective activity against glutamate-induced intracellular oxidative stress in mouse HT22 cells assessed as inhibition of ROS production at 5 uM measured after 12 hrs by DCFH-DA probe based fluorescence method relative to control. Type of data set: functional, cell-based.
The subject of data set [8] is BV-2. The data set can be described thus: Antineuroinflammatory activity in mouse BV2 cells assessed as decrease in LPS-induced iNOS mRNA expression incubated for 30 mins followed by LPS stimulation for 12 hrs by qPCR method. It is filed as functional, cell-based.
Data set [9] concerns BV-2. The data set can be described thus: Antineuroinflammatory activity in mouse BV2 cells assessed as decrease in LPS-induced TNFalpha expression incubated for 30 mins followed by LPS stimulation for 12 hrs by qPCR method. Type of data set: functional, cell-based.
The test system of data set [10] is BV-2. Kind of data set: Antineuroinflammatory activity in mouse BV2 cells assessed as decrease in LPS-induced IL-1beta expression incubated for 30 mins followed by LPS stimulation for 12 hrs by qPCR method. It is filed as functional, cell-based.
In data set [11] the test system is BV-2. Kind of data set: Antineuroinflammatory activity in mouse BV2 cells assessed as decrease in LPS-induced iNOS expression incubated for 30 mins followed by LPS stimulation for 16 hrs by Western blot analysis. Type of data set: functional, cell-based.
Data set [12] deals with BV-2. Kind of data set: Antineuroinflammatory activity in mouse BV2 cells assessed as decrease in LPS-induced secretion of TNFalpha incubated for 30 mins followed by LPS stimulation for 16 hrs by ELISA. It is filed as functional, cell-based.
For data set [13], the system named is BV-2. Kind of data set: Antineuroinflammatory activity in mouse BV2 cells assessed as decrease in LPS-induced secretion of IL-1beta incubated for 30 mins followed by LPS stimulation for 16 hrs by ELISA. It is filed as functional, cell-based.
The subject of data set [14] is BV-2. The data set can be described thus: Neuroprotective activity against glutamate-induced cell damage in […] assessed as change in cell morphology at 5 uM measured after 24 hrs. It is filed as functional, cell-based.
Data set [15] has as its system HT-22. Kind of data set: Neuroprotective activity against glutamate-induced intracellular oxidative stress in mouse HT22 cells assessed as increase in GSH level at 5 uM measured after 12 hrs relative to control. It is filed as functional, cell-based.

Calls of active or inactive are those of the source. The rule behind the calls is not given here.

In the case of `Oc1ccc2nc(-c3cccc(N4CCc5ccccc5C4)c3)[nH]c2c1`, the results for the inhibition in data set [1] and in data set [4] were 6.8% and 11.2%, respectively. The IC50 in data set [2] was determined as 5.95 µM. Moreover, the Papp at 10 h, 100 ug/ml in data set [3] was found to be 8.6 ×10⁻⁶ cm/s.
Take `Fc1cc2nc(-c3cccc(N4CCc5ccccc5C4)n3)[nH]c2cc1F`: the inhibition in data set [1] was 8.9%; in data set [4], 7.2%. For the same compound, the half-maximal inhibitory concentration (IC50) in [2] was determined as 6.58 µM. Also, in data set [3], the Papp at 10 h, 100 ug/ml was 13.9 ×10⁻⁶ cm/s.
Turning to `CC(C)(C)c1ccc2nc(-c3cccc(N4CCc5ccccc5C4)n3)[nH]c2c1`, the inhibition in [1] was determined as 3.8%; in [4] it was 24.6%. Moreover, the IC50 in data set [2] is > 10 µM.
`FC(F)(F)Oc1ccc2nc(-c3cccc(N4CCc5ccccc5C4)n3)[nH]c2c1`: the values for the inhibition in [1] and in [4] were 11.7% and 7.6%, respectively. The values for the IC50 in data set [2] and in data set [5] were 9.74 µM and 1.1 µM, respectively. The Papp at 10 h, 100 ug/ml in data set [3] is 10 ×10⁻⁶ cm/s. Moreover, in data set [6], the viability at 5 µM was found to be 62.1%.
Regarding `Clc1ccc2nc(-c3cccc(N4CCc5ccccc5C4)c3)[nH]c2c1`, the inhibition was determined as 27.6% in data set [1] and 3.4% in data set [4]. The IC50 was > 10 µM in data set [2] and 1.3 µM in [5]. Moreover, the Papp at 10 h, 100 ug/ml in data set [3] was found to be 4.9 ×10⁻⁶ cm/s. For the same compound, the viability at 5 µM in [6] amounted to 67.6%.
On to `Clc1cc2nc(-c3cccc(N4CCc5ccccc5C4)c3)[nH]c2cc1Cl`, for which the inhibition in data set [1] stood at 3.7%; in [4], 16.2%. Besides, the IC50 in data set [2] was found to be 7.93 µM. The Papp at 10 h, 100 ug/ml in data set [3] is 9.9 ×10⁻⁶ cm/s.
`FC(F)(F)c1ccc2nc(-c3cccc(N4CCc5ccccc5C4)c3)[nH]c2c1`: the inhibition worked out at 11.3% in data set [1] and 11.9% in data set [4]. Also, the IC50 in data set [2] amounted to 7.72 µM. For the same compound, in [3], the Papp at 10 h, 100 ug/ml was determined as 8.7 ×10⁻⁶ cm/s.
`FC(F)(F)c1ccc2nc(-c3cccc(N4CCc5ccccc5C4)n3)[nH]c2c1`: the values for the inhibition in [1] and in data set [4] were 18.6% and 20.4%, respectively. Besides, the figures for the 50% inhibitory concentration (IC50) in data set [2] and in [5] were 9.33 µM and 3.6 µM, respectively. Besides, in [3], the Papp at 10 h, 100 ug/ml worked out at 5.4 ×10⁻⁶ cm/s.
For `Fc1ccc2nc(-c3cccc(N4CCc5ccccc5C4)c3)[nH]c2c1`, the results for the inhibition in [1] and in [4] were 17.1% and 9.5%, respectively. Also, the 50% inhibitory concentration (IC50) in [2] came to 5.42 µM. In addition, the Papp at 10 h, 100 ug/ml in data set [3] came out at 12.6 ×10⁻⁶ cm/s.
`COc1ccc2nc(-c3cccc(N4CCc5ccccc5C4)n3)[nH]c2c1`: the values for the inhibition in data set [1] and in data set [4] were 35.6% and 4.5%, respectively. The IC50 in [2] came to 5.07 µM. Further, the Papp at 10 h, 100 ug/ml in data set [3] was found to be 16.8 ×10⁻⁶ cm/s. Moreover, the viability at 5 µM in data set [6] was 91.8%. Also, the inhibition entry in data set [7] was “Active”. The Activity entry in data set [8], in [9], in data set [10], in data set [11], in [12] and in [13] was “Dose-dependent effect” each time. In addition, the outcome in [14] and in [15] was Active.
As to `Cc1ccc2nc(-c3cccc(N4CCc5ccccc5C4)c3)[nH]c2c1`, the inhibition in [1] was found to be 20.7%; in [4], 5%. For the same compound, in [2], the IC50 is 5.7 µM. Moreover, in data set [3], the Papp at 10 h, 100 ug/ml worked out at 9.6 ×10⁻⁶ cm/s.
For `COc1ccc2c(c1)CCN(c1cccc(-c3nc4ccc(OC)cc4[nH]3)n1)C2`, the inhibition in [1] was determined as 9.7%; in data set [4], 4.7%. In addition, the concentration for half-maximal inhibition (IC50) in data set [2] is > 10 µM. In data set [3], the Papp at 10 h, 100 ug/ml turned out to be 11.5 ×10⁻⁶ cm/s.
Take `Fc1ccc2nc(-c3cccc(N4CCc5ccccc5C4)n3)[nH]c2c1`: the inhibition in [1] came to 24.2%; in [4], 6.6%. Besides, the IC50 in [2] is 5.7 µM. Besides, in data set [3], the Papp at 10 h, 100 ug/ml was 14.5 ×10⁻⁶ cm/s. Also, the viability at 5 µM in data set [6] was 67.8%.
Take `COc1ccc2nc(-c3cccc(N4CCc5ccccc5C4)c3)[nH]c2c1`: the results for the inhibition in data set [1] and in data set [4] were 5.4% and 10.4%, respectively. Further, the IC50 in data set [2] amounted to 8.28 µM. The Papp at 10 h, 100 ug/ml in data set [3] is 5.6 ×10⁻⁶ cm/s.
Take `c1cc(-c2nc3ccccc3[nH]2)cc(N2CCc3ccccc3C2)c1`: the inhibition in data set [1] was determined as 18.3%; in data set [4], 6.3%. For the same compound, the concentration for half-maximal inhibition (IC50) in data set [2] was 6.08 µM. Besides, in data set [3], the Papp at 10 h, 100 ug/ml was 8.5 ×10⁻⁶ cm/s.
For `c1cc(-c2nc3ccccc3[nH]2)nc(N2CCc3ccccc3C2)c1`, the inhibition in data set [1] was 23.2%; in data set [4], 10.1%. The IC50 in data set [2] was determined as 7.33 µM. Also, the Papp at 10 h, 100 ug/ml in data set [3] worked out at 15.9 ×10⁻⁶ cm/s. The viability at 5 µM in data set [6] amounted to 80.3%.
Taken in the same sequence, the figures for `Oc1ccc2nc(-c3cccc(N4CCc5ccccc5C4)n3)[nH]c2c1` were 45.6%, 7.5%, 3.8 µM, 13.8 ×10⁻⁶ cm/s and 98.8%.
With `Clc1ccc2nc(-c3cccc(N4CCc5ccccc5C4)n3)[nH]c2c1`, the figures for the inhibition in data set [1] and in data set [4] were 19.8% and 24.3%, respectively. Moreover, the results for the IC50 in data set [2] and in data set [5] were 6.94 µM and 1.8 µM, respectively. Besides, the Papp at 10 h, 100 ug/ml in data set [3] worked out at 16.7 ×10⁻⁶ cm/s.
Take `Nc1cccc2nc(-c3cccc(N4CCc5ccccc5C4)c3)[nH]c12`: the inhibition was 25.9% in [1] and 4.8% in data set [4]. Besides, the concentration for half-maximal inhibition (IC50) in data set [2] was > 10 µM. The Papp at 10 h, 100 ug/ml in data set [3] is 13 ×10⁻⁶ cm/s. For the same compound, the viability at 5 µM in [6] stood at 94.9%.
On the same counts, the results for `Fc1cc2[nH]c(-c3cccc(N4CCc5ccccc5C4)c3)nc2cc1Cl` are 0.5%, 10.9%, > 10 µM, 10.1 ×10⁻⁶ cm/s and 48.9%.
Regarding `COc1ccc2c(c1)CCN(c1cccc(-c3nc4ccc(OC)cc4[nH]3)c1)C2`, the inhibition in [1] is 0.3%; in data set [4], 6%. The IC50 in [2] is > 10 µM. Further, the Papp at 10 h, 100 ug/ml in data set [3] is 7.6 ×10⁻⁶ cm/s. Besides, the viability at 5 µM in [6] was 93.1%.
`Fc1ccc2c(c1)CCN(c1cccc(-c3nc4ccc(F)cc4[nH]3)n1)C2`: the inhibition was found to be 33.7% in data set [1] and 19.9% in data set [4]. For the same compound, the IC50 in data set [2] is 6.43 µM. Also, in data set [3], the Papp at 10 h, 100 ug/ml was 14 ×10⁻⁶ cm/s. Further, the viability at 5 µM in [6] stood at 71.1%.

As a reminder, the inhibition is how much of the control response was suppressed. In general, IC50 refers to the concentration needed to halve the response being measured.
